Structures are written as SMILES.

The target in this experiment is T1, human TGR5 (Homo sapiens, UniProt Q8TDU6).
T1 construct: expressed in transfected cells; host or cells: HEK293
T1 sequence (Q8TDU6 1-330): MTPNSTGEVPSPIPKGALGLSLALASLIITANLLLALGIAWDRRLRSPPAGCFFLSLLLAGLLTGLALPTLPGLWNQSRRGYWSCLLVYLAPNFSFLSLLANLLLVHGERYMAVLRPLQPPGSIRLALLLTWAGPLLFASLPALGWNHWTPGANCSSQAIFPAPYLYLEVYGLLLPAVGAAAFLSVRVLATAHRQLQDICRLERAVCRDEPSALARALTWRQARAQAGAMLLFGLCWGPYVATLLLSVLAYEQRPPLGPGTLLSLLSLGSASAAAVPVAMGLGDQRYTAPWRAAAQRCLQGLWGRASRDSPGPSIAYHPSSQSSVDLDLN
As to the kind of experiment: Cell-based TGR5 assay (cAMP generation, HTRF). The conditions noted are these: HEK293 cells stably transfected with human TGR5; cAMP by HTRF; 30 minutes at 37° C.; read-out: pEC50 Human TGR5 (converted). The gist of the method: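 First, compounds in 3-fold serial dilution were placed in HBSS with 10 mM HEPES pH 7.4 and 0.5 mM IBMX. Next, human TGR5-expressing HEK293 cells were added and incubated 30 min at 37° C. Finally, cAMP was detected by HTRF and pEC50 derived by logistic fitting.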
Take `O=C(NCCCC(CO)c1ccc(Cl)c(CNC2(c3cnccc3-c3ccccc3OC3CC3)CC2)c1)[C@@H](O)[C@@H](O)[C@H](O)[C@@H](O)CO` (stereo partly drawn) [Compound I-380, (2S,3S,4R,5S)-N-(4-[4-chloro-3-[([1-[4-(2-cyclopropoxyphenyl)pyridin-3-yl]cyclopropyl]amino)methyl]phenyl]-5-hydroxypentyl)-2,3,4,5,6-pentahydroxyhexanamide]: the EC50 is 126 to 1000 nM.

As for `CS(=O)(=O)NCCCCN(CCCCSc1ccc(Cl)c(CNC2(c3cnccc3-c3ccccc3OC3CC3)CC2)c1)C(=O)[C@@H](O)[C@@H](O)[C@H](O)[C@@H](O)CO` [Compound I-582, (2S,3S,4R,5S)-N-[4-({4-chloro-3-[({1-[4-(2-cyclopropoxyphenyl)pyridin-3-yl]cyclopropyl}amino)methyl]phenyl}sulfanyl)butyl]-2,3,4,5,6-pentahydroxy-N-(4-methanesulfonamidobutyl) hexanamide], the EC50 is less than 100 nM. Take `Clc1cccc(COC2(c3cnccc3-c3ccccc3OC3CC3)CC2)c1Cl` [Compound I-47, 4-(2-cyclopropoxyphenyl)-3-{1-[(2,3-dichlorophenyl)methoxy]cyclopropyl}pyridine]: the EC50 is 126 to 1000 nM. Regarding `O=C(NCCCSc1ccc(Cl)c(CNC2(c3cnccc3-c3ccccc3OC3CC3)CC2)c1)NC[C@H](O)[C@@H](O)[C@H](O)[C@H](O)CO` [Compound I-622, 1-[3-({4-chloro-3-[({1-[4-(2-cyclopropoxyphenyl)pyridin-3-yl]cyclopropyl}amino)methyl]phenyl}sulfanyl)propyl]-3-[(2S,3R,4R,5R)-2,3,4,5,6-pentahydroxyhexyl]urea], the EC50 is less than 100 nM.

`C[C@H](CCCC(=O)NC[C@H](O)[C@@H](O)[C@H](O)[C@H](O)CO)c1ccc(Cl)c(CNC2(c3cnccc3-c3ccccc3OC3CC3)CC2)c1` (single isomer, unassigned) [Compound I-315]: the EC50 was less than 100 nM. For the compound `O=C(O)COCC(=O)N(CCCCc1cc(Cl)c(COC2(c3cnccc3-c3ccccc3OC3CC3)CC2)cc1Cl)C[C@H](O)[C@@H](O)[C@H](O)[C@H](O)CO` (stereo in doubt) [Compound I-186, 2-[({4-[2,5-dichloro-4-({1-[4-(2-cyclopropoxyphenyl)pyridin-3-yl]cyclopropoxy}methyl)phenyl]butyl}[(2S,3R,4R,5R)-2,3,4,5,6-pentahydroxyhexyl]carbamoyl)methoxy]acetic acid], the EC50 is 126 to 1000 nM. `CCN(CCCCNC(=O)N[C@@H](CO)[C@@H](O)[C@H](O)[C@H](O)CO)S(=O)(=O)c1ccc(Cl)c(COC2(c3cnccc3-c3ccccc3OC3CC3)CC2)c1` [Compound I-465, 1-{4-[N-ethyl4-chloro-3-({1-[4-(2-cyclopropoxyphenyl)pyridin-3-yl]cyclopropoxy}methyl)benzenesulfonamido]butyl}-3-[(2S,3R,4S,5R)-1,3,4,5,6-pentahydroxyhexan-2-yl]urea]: the EC50 was less than 100 nM.

With `Clc1ccc(Cl)c(COC2(c3cnccc3-c3ccccc3OC3CC3)CCOC2)c1` (stereo not shown) [Compound I-743, 4-(2-cyclopropoxyphenyl)-3-(3-((2,5-dichlorobenzyl)oxy)tetrahydrofuran-3-yl)pyridine], the EC50 was less than 100 nM. On to `CC(C)(OCc1cc(Cl)ccc1Cl)c1cnccc1-c1ccccc1OC1CC1` [Compound I-740, 4-(2-cyclopropoxyphenyl)-3-(2-((2,5-dichlorobenzyl)oxy)propan-2-yl)pyridine], for which the EC50 is less than 100 nM. Regarding `Cc1cc(COC2(c3cnccc3-c3ccccc3OC3CC3)CC2)c(Cl)cc1CCCCNC(=O)NC[C@@H]1O[C@H](C(=O)O)[C@@H](O)[C@H](O)[C@H]1O` [Compound I-110, (2S,3S,4R,5R,6S)-6-{[({4-[5-chloro-4-({1-[4-(2-cyclopropoxyphenyl)pyridin-3-yl]cyclopropoxy}methyl)-2-methylphenyl]butyl}carbamoyl)amino]methyl}-3,4,5-trihydroxyoxane-2-carboxylic acid], the EC50 was less than 100 nM.

Consider `Clc1ccc(Cl)c(CNC2(c3cnccc3-c3ccccc3)CC2)c1` [Compound I-14, N-[(2,5-dichlorophenyl)methyl]-1-(4-phenylpyridin-3-yl)cyclopropan-1-amine], for which the EC50 is 126 to 1000 nM.

For the compound `CN(C)CCN(C[C@H](O)[C@@H](O)[C@H](O)[C@H](O)CO)C(=O)CCCSc1ccc(Cl)c(COC2(c3cnccc3-c3ccccc3OC3CC3)CC2)c1` [Compound I-662, 4-{[4-chloro-3-({1-[4-(2-cyclopropoxyphenyl)pyridin-3-yl]cyclopropoxy}methyl)phenyl]sulfanyl}-N-[2-(dimethylamino)ethyl]-N-[(2S,3R,4R,5R)-2,3,4,5,6-pentahydroxyhexyl]butanamide], the EC50 is 126 to 1000 nM. As to `Cc1ccc(C(C)CCCC(=O)N(CC(=O)N(C)C)C[C@H](O)[C@@H](O)[C@H](O)[C@H](O)CO)cc1CNC1(c2cnccc2-c2ccccc2OC2CC2)CC1` (stereo partly drawn) [Compound I-364, 5-{3-[({1-[4-(2-cyclopropoxyphenyl)pyridin-3-yl]cyclopropyl}amino)methyl]-4-methylphenyl}-N-[(dimethylcarbamoyl)methyl]-N-[(2S,3R,4R,5R)-2,3,4,5,6-pentahydroxyhexyl]hexanamide], the EC50 was 126 to 1000 nM. In the case of `Cc1cc(COC2(c3cnccc3-c3ccccc3OC3CC3)CC2)c(Cl)cc1CCCCN(C)C(=O)[C@@H](O)[C@@H](O)[C@H](O)[C@@H](O)CO` [Compound I-132, (2S,3S,4R,5S)-N-{4-[5-chloro-4-({1-[4-(2-cyclopropoxyphenyl)pyridin-3-yl]cyclopropoxy}methyl)-2-methylphenyl]butyl}-2,3,4,5,6-pentahydroxy-N-methylhexanamide], the EC50 was less than 100 nM. Take `CN(CCCCCSc1ccc(Cl)c(COC2(c3cnccc3-c3ccccc3OC3CC3)CC2)c1)C(=O)[C@@H](O)[C@@H](O)[C@H](O)[C@@H](O)CO` [Compound I-509, (2S,3S,4R,5S)-N-(5-{[4-chloro-3-({1-[4-(2-cyclopropoxyphenyl)pyridin-3-yl]cyclopropoxy}methyl)phenyl]sulfanyl}pentyl)-2,3,4,5,6-pentahydroxy-N-methylhexanamide]: the EC50 is less than 100 nM. The result for `CC(CCCCCNC(=O)[C@@H](O)[C@@H](O)[C@H](O)[C@@H](O)CO)c1ccc(Cl)c(CNC2(c3cnccc3-c3ccccc3OC3CC3)CC2)c1` (stereo partly drawn) [Compound I-280, (2S,3S,4R,5S)-N-(6-{4-chloro-3-[({1-[4-(2-cyclopropoxyphenyl)pyridin-3-yl]cyclopropyl}amino)methyl]phenyl}heptyl)-2,3,4,5,6-pentahydroxyhexanamide] reads less than 100 nM; that for `CN(C[C@H](O)[C@@H](O)[C@H](O)[C@H](O)CO)C(=O)CC1CN(S(=O)(=O)c2ccc(Cl)c(COC3(c4cnccc4-c4ccccc4OC4CC4)CC3)c2)C1` [Compound I-447, 2-{1-[4-chloro-3-({1-[4-(2-cyclopropoxyphenyl)pyridin-3-yl]cyclopropoxy}methyl)benzenesulfonyl]azetidin-3-yl}-N-methyl-N-[(2S,3R,4R,5R)-2,3,4,5,6-pentahydroxyhexyl]acetamide], less than 100 nM; that for `CC(CCCCN)c1ccc(Cl)c(CNC2(c3cnccc3-c3ccccc3OC3CC3)CC2)c1` (single isomer, unassigned) [Compound I-244], 126 to 1000 nM. Regarding `COCCCN(C[C@H](O)[C@@H](O)[C@H](O)[C@H](O)CO)C(=O)CCCSc1ccc(Cl)c(COC2(c3cnccc3-c3ccccc3OC3CC3)CC2)c1` [Compound I-673, 4-{[4-chloro-3-({1-[4-(2-cyclopropoxyphenyl)pyridin-3-yl]cyclopropoxy}methyl)phenyl]sulfanyl}-N-(3-methoxypropyl)-N-[(2S,3R,4R,5R)-2,3,4,5,6-pentahydroxyhexyl]butanamide], the EC50 was 126 to 1000 nM. For `CC(CCCN(CCOCCO)C(=O)[C@@H](O)[C@@H](O)[C@H](O)[C@@H](O)CO)c1ccc(Cl)c(CNC2(c3cnccc3-c3ccccc3OC3CC3)CC2)c1` (stereo partly drawn) [Compound I-286, (2S,3S,4R,5S)-N-(4-{4-chloro-3-[({1-[4-(2-cyclopropoxyphenyl)pyridin-3-yl]cyclopropyl}amino)methyl]phenyl}pentyl)-2,3,4,5,6-pentahydroxy-N-[2-(2-hydroxyethoxy)ethyl]hexanamide] the value was less than 100 nM. For `Cc1ccc(C(C)CCCN(CCS(C)(=O)=O)C(=O)[C@@H](O)[C@@H](O)[C@H](O)[C@@H](O)CO)cc1CNC1(c2cnccc2-c2ccccc2OC2CC2)CC1` (stereo partly drawn) [Compound I-305, (2S,3S,4R,5S)-N-(4-{3-[({1-[4-(2-cyclopropoxyphenyl)pyridin-3-yl]cyclopropyl}amino)methyl]-4-methylphenyl}pentyl)-2,3,4,5,6-pentahydroxy-N-(2-methanesulfonylethyl) hexanamide] the value was less than 100 nM; for `Oc1cc(Cl)c(CNC2(c3cnccc3-c3ccccc3OC3CC3)CC2)cc1Cl` [Compound I-700, 2,5-dichloro-4-[([1-[4-(2-cyclopropoxyphenyl)pyridin-3-yl]cyclopropyl]amino)methyl]phenol], less than 100 nM.
